Results from patent publication US10981894B2, “Melanocortin subtype-2 receptor (MC2R) antagonists and uses thereof” (Crinetics Pharmaceuticals, Inc., priority 2018, dated 2021).

Biological target: hMC2 receptor (Homo sapiens, UniProt Q01718)
Test: hMC2 membrane binding assay ([125I]ACTH (1-39) Tyr23, SPA)
Parameters: scale not given here
Conditions: crude hMC2R membranes from CRE-bla-CHO-K1 cells expressing hMC2 receptor and hMRAP; [125I]ACTH (1-39) Tyr23 0.2 nM; 1.5 hours at room temperature; read-out: MC2R binding potency
Outline: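 CRE-bla-CHO-K1 membranes co-expressing hMC2 receptor and hMRAP, preincubated with WGA PVT SPA beads in pH 7.4 HEPES/MgCl2/CaCl2/0.2% BSA buffer. Compounds (typically 0–10,000 nM final) compete with 0.2 nM [125I]ACTH(1-39) Tyr23 for 1.5 h at room temperature. SPA counts give Ki by non-linear regression.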

Chain of hMC2 receptor (Q01718 whole entry): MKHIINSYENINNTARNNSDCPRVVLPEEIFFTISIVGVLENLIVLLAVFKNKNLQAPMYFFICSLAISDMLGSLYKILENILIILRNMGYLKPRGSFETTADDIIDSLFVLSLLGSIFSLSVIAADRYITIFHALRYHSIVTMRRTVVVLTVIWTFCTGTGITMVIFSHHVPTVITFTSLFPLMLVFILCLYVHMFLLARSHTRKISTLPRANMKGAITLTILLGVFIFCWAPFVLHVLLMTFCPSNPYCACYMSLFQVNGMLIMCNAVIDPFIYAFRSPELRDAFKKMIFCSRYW
Chain of hMC2 receptor (Q8TCY5 whole entry partner): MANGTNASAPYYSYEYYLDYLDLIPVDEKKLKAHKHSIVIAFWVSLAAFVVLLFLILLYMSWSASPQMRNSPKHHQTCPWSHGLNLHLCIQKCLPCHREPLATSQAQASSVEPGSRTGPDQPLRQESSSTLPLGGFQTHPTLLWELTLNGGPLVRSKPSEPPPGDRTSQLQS

CCOc1ccc(C(=O)N2CCN(c3ccc(-c4cccnc4OCC)nc3C(=O)NCC3CN(C)C3)[C@H](CC)C2)c(C(F)(F)F)n1 [Compound 1-249, 2′-ethoxy-5-[(2R)-4-[6-ethoxy-2-(trifluoromethyl)pyridine-3-carbonyl]-2-ethylpiperazin-1-yl]-N-[(1-methylazetidin-3-yl)methyl]-[2,3′-bipyridine]-6-carboxamide]
Ki: < 10 nM

CCOc1ccccc1-c1ccc(N2CCN(C(=O)c3ccc(OC)nc3C(F)(F)F)C[C@H]2CC)c(C(=O)N[C@@H]2CCN(C)C2)n1 [Compound 1-253, 6-(2-ethoxyphenyl)-3-[(2R)-2-ethyl-4-[6-methoxy-2-(trifluoromethyl)pyridine-3-carbonyl]piperazin-1-yl]-N-[(3R)-1-methylpyrrolidin-3-yl]pyridine-2-carboxamide]
Ki: < 10 nM

CCOc1ccccc1-c1ccc(N2CCN(C(=O)c3ccc(OC)nc3C(F)(F)F)C[C@H]2CC)c(C(=O)N[C@@H]2CCNC2)n1 [Compound 1-254, 6-(2-ethoxyphenyl)-3-[(2R)-2-ethyl-4-[6-methoxy-2-(trifluoromethyl)pyridine-3-carbonyl]piperazin-1-yl]-N-[(3R)-pyrrolidin-3-yl]pyridine-2-carboxamide]
Ki: < 10 nM

CCOc1ncccc1-c1ccc(N2CCN(C(=O)C3(C(F)(F)F)CCCC3)C[C@H]2CC)c(C(=O)N[C@@H]2CCN(C)C2)n1 [Compound 1-255, 2′-ethoxy-5-[(2R)-2-ethyl-4-[1-(trifluoromethyl)cyclopentanecarbonyl]piperazin-1-yl]-N-[(3R)-1-methylpyrrolidin-3-yl]-[2,3′-bipyridine]-6-carboxamide]
Ki: < 10 nM

CCOc1ccc(C(=O)N2CCN(c3ccc(-c4cccnc4OCC)nc3C(=O)NC[C@@H]3CCN3)[C@H](CC)C2)c(C(F)(F)F)n1 [Compound 1-256, N-{[(2S)-azetidin-2-yl]methyl}-2′-ethoxy-5-[(2R)-4-[6-ethoxy-2-(trifluoromethyl)pyridine-3-carbonyl]-2-ethylpiperazin-1-yl]-[2,3′-bipyridine]-6-carboxamide]
Ki: < 10 nM

CCOc1ccc(C(=O)N2CCN(c3ccc(-c4cccnc4OCC)nc3C(=O)NC[C@@H]3CCN3C)[C@H](CC)C2)c(C(F)(F)F)n1 [Compound 1-257, 2′-ethoxy-5-[(2R)-4-[6-ethoxy-2-(trifluoromethyl)pyridine-3-carbonyl]-2-ethylpiperazin-1-yl]-N-{[(2S)-1-methylazetidin-2-yl]methyl}-[2,3′-bipyridine]-6-carboxamide]
Ki: < 10 nM

CCOc1ncccc1-c1ccc(N2CCN(C(=O)c3ccc(F)cc3C(F)(F)F)C[C@H]2CC)c(C(=O)N[C@@H]2CCN(C)C2)n1 [Compound 1-258, 2′-ethoxy-5-[(2R)-2-ethyl-4-[4-fluoro-2-(trifluoromethyl)benzoyl]piperazin-1-yl]-N-[(3R)-1-methylpyrrolidin-3-yl]-[2,3′-bipyridine]-6-carboxamide]
Ki: < 10 nM

CCOc1ncccc1-c1ccc(N2CCN(C(=O)c3ccc(Cl)cc3Cl)C[C@H]2CC)c(C(=O)N[C@@H]2CCN(C)C2)n1 [Compound 1-259, 5-[(2R)-4-(2,4-dichlorobenzoyl)-2-ethylpiperazin-1-yl]-2′-ethoxy-N-[(3R)-1-methylpyrrolidin-3-yl]-[2,3′-bipyridine]-6-carboxamide]
Ki: < 10 nM

CCOc1ncccc1-c1ccc(N2CCN(C(=O)c3ccc(Cl)cc3C#N)C[C@H]2CC)c(C(=O)N[C@@H]2CCN(C)C2)n1 [Compound 1-260, 5-[(2R)-4-(4-chloro-2-cyanobenzoyl)-2-ethylpiperazin-1-yl]-2′-ethoxy-N-[(3R)-1-methylpyrrolidin-3-yl]-[2,3′-bipyridine]-6-carboxamide]
Ki: < 10 nM

CCOc1ncccc1-c1ccc(N2CCN(C(=O)c3ccc(F)cc3Cl)C[C@H]2CC)c(C(=O)N[C@@H]2CCN(C)C2)n1 [Compound 1-261, 5-[(2R)-4-[2-chloro-4-fluorobenzoyl]-2-ethylpiperazin-1-yl]-2′-ethoxy-N-[(3R)-1-methylpyrrolidin-3-yl]-[2,3′-bipyridine]-6-carboxamide]
Ki: < 10 nM

CCOc1ncccc1-c1ccc(N2CCN(C(=O)c3ccc(Cl)cc3C(F)F)C[C@H]2CC)c(C(=O)N[C@@H]2CCN(C)C2)n1 [Compound 1-262, 5-[(2R)-4-[4-chloro-2-(difluoromethyl)benzoyl]-2-ethylpiperazin-1-yl]-2′-ethoxy-N-[(3R)-1-methylpyrrolidin-3-yl]-[2,3′-bipyridine]-6-carboxamide]
Ki: < 10 nM

CCOc1ncccc1-c1ccc(N2CCN(C(=O)C3(C(F)(F)F)CCCC3)C[C@H]2CC)c(C(=O)N[C@@H]2CCNC2)n1 [Compound 1-263, 2′-ethoxy-5-[(2R)-2-ethyl-4-[1-(trifluoromethyl)cyclopentanecarbonyl]piperazin-1-yl]-N-[(3R)-pyrrolidin-3-yl]-[2,3′-bipyridine]-6-carboxamide]
Ki: < 10 nM

CCOc1ncccc1-c1ccc(N2CCN(C(=O)C3(CC)CCCC3)C[C@H]2CC)c(C(=O)NCCNC)n1 [Compound 1-264, 2′-ethoxy-5-[(2R)-2-ethyl-4-(1-ethylcyclopentanecarbonyl)piperazin-1-yl]-N-[2-(methylamino)ethyl]-[2,3′-bipyridine]-6-carboxamide]
Ki: < 10 nM

CCOc1ncccc1-c1ccc(N2CCN(C(=O)c3ccc(Cl)cc3C(F)F)C[C@H]2CC)c(C(=O)N[C@@H]2CCNC2)n1 [Compound 1-265, 5-[(2R)-4-[4-chloro-2-(difluoromethyl)benzoyl]-2-ethylpiperazin-1-yl]-2′-ethoxy-N-[(3R)-pyrrolidin-3-yl]-[2,3′-bipyridine]-6-carboxamide]
Ki: < 10 nM

CCOc1ncccc1-c1ccc(N2CCN(C(=O)c3ccc(F)cc3C(F)(F)F)C[C@H]2CC)c(C(=O)N[C@@H]2CCNC2)n1 [Compound 1-266, 2′-ethoxy-5-[(2R)-2-ethyl-4-[4-fluoro-2-(trifluoromethyl)benzoyl]piperazin-1-yl]-N-[(3R)-pyrrolidin-3-yl]-[2,3′-bipyridine]-6-carboxamide]
Ki: < 10 nM

CCOc1ncccc1-c1ccc(N2CCN(C(=O)c3ccc(Cl)cc3Cl)C[C@H]2CC)c(C(=O)N[C@@H]2CCNC2)n1 [Compound 1-267, 5-[(2R)-4-(2,4-dichlorobenzoyl)-2-ethylpiperazin-1-yl]-2′-ethoxy-N-[(3R)-pyrrolidin-3-yl]-[2,3′-bipyridine]-6-carboxamide]
Ki: < 10 nM

CCOc1ncccc1-c1ccc(N2CCN(C(=O)c3ccc(OC)nc3C(F)(F)F)C[C@H]2CC)c(C(=O)N[C@@H]2CCN(C)C2)c1F [Compound 1-270, 3-(2-ethoxypyridin-3-yl)-6-[(2R)-2-ethyl-4-[6-methoxy-2-(trifluoromethyl)pyridine-3-carbonyl]piperazin-1-yl]-2-fluoro-N-[(3R)-1-methylpyrrolidin-3-yl]benzamide]
Ki: < 10 nM

CCOc1ncccc1-c1ccc(N2CCN(C(=O)c3ccc(OC)nc3C(F)(F)F)C[C@H]2CC)c(C(=O)N[C@@H]2CCNC2)c1F [Compound 1-271, 3-(2-ethoxypyridin-3-yl)-6-[(2R)-2-ethyl-4-[6-methoxy-2-(trifluoromethyl)pyridine-3-carbonyl]piperazin-1-yl]-2-fluoro-N-[(3R)-pyrrolidin-3-yl]benzamide]
Ki: < 10 nM

CCOc1ncccc1-c1ccc(N2CCN(C(=O)C3(C(F)(F)F)CCCCC3)C[C@H]2CC)c(C(=O)N[C@@H]2CCNC2)n1 [Compound 1-273, 2′-ethoxy-5-[(2R)-2-ethyl-4-[1-(trifluoromethyl)cyclohexanecarbonyl]piperazin-1-yl]-N-[(3R)-pyrrolidin-3-yl]-[2,3′-bipyridine]-6-carboxamide]
Ki: < 10 nM

CCOc1ncccc1-c1ccc(N2CCN(C(=O)C34CCC(C(F)(F)F)(CC3)CC4)C[C@H]2CC)c(C(=O)N[C@@H]2CCNC2)n1 [Compound 1-274, 2′-ethoxy-5-[(2R)-2-ethyl-4-[4-(trifluoromethyl)bicyclo[2.2.2]octane-1-carbonyl]piperazin-1-yl]-N-[(3R)-pyrrolidin-3-yl]-[2,3′-bipyridine]-6-carboxamide]
Ki: < 10 nM

CCOc1ncccc1-c1ccc(N2CCN(C(=O)c3ccc(Cl)cc3C(F)(F)F)C[C@H]2CC)c(C(=O)N[C@H]2CNC[C@H]2F)n1 [Compound 1-275, 5-[(2R)-4-[4-chloro-2-(trifluoromethyl)benzoyl]-2-ethylpiperazin-1-yl]-2′-ethoxy-N-[(3S,4R)-4-fluoropyrrolidin-3-yl]-[2,3′-bipyridine]-6-carboxamide]
Ki: < 10 nM

CCOc1ncccc1-c1ccc(N2CCN(C(=O)c3ccc(Cl)cc3C(F)(F)F)C[C@H]2CC)c(C(=O)N[C@@H]2CNC[C@H]2F)n1 [Compound 1-276, 5-[(2R)-4-[4-chloro-2-(trifluoromethyl)benzoyl]-2-ethylpiperazin-1-yl]-2′-ethoxy-N-[(3R,4R)-4-fluoropyrrolidin-3-yl]-[2,3′-bipyridine]-6-carboxamide]
Ki: < 10 nM

CCOc1ncccc1-c1ccc(N2CCN(C(=O)c3ccc(Cl)cc3C#N)C[C@H]2CC)c(C(=O)N[C@@H]2CCNC2)n1 [Compound 1-277, 5-[(2R)-4-(4-chloro-2-cyanobenzoyl)-2-ethylpiperazin-1-yl]-2′-ethoxy-N-[(3R)-pyrrolidin-3-yl]-[2,3′-bipyridine]-6-carboxamide]
Ki: < 10 nM

CCOc1ncccc1-c1ccc(N2CCN(C(=O)c3ccc(F)cc3C(F)F)C[C@H]2CC)c(C(=O)N[C@@H]2CCNC2)n1 [Compound 1-278, 5-[(2R)-4-[2-(difluoromethyl)-4-fluorobenzoyl]-2-ethylpiperazin-1-yl]-2′-ethoxy-N-[(3R)-pyrrolidin-3-yl]-[2,3′-bipyridine]-6-carboxamide]
Ki: < 10 nM

CCOc1ncccc1-c1ccc(N2CCN(C(=O)c3ccc(F)cc3C(F)F)C[C@H]2CC)c(C(=O)N[C@@H]2CCN(C)C2)n1 [Compound 1-279, 5-[(2R)-4-[2-(difluoromethyl)-4-fluorobenzoyl]-2-ethylpiperazin-1-yl]-2′-ethoxy-N-[(3R)-1-methylpyrrolidin-3-yl]-[2,3′-bipyridine]-6-carboxamide]
Ki: < 10 nM
